Results taken from ChEMBL document CHEMBL1201862, “PubChem BioAssay data set” (2004).
Activity calls are given as the source filed them. Rule as the data show it: active = EC50 of 10 µM or less and inactive = more.

Molecular target: T1, Insulin-degrading enzyme (Homo sapiens, UniProt P14735)
T1 sequence (P14735 whole entry): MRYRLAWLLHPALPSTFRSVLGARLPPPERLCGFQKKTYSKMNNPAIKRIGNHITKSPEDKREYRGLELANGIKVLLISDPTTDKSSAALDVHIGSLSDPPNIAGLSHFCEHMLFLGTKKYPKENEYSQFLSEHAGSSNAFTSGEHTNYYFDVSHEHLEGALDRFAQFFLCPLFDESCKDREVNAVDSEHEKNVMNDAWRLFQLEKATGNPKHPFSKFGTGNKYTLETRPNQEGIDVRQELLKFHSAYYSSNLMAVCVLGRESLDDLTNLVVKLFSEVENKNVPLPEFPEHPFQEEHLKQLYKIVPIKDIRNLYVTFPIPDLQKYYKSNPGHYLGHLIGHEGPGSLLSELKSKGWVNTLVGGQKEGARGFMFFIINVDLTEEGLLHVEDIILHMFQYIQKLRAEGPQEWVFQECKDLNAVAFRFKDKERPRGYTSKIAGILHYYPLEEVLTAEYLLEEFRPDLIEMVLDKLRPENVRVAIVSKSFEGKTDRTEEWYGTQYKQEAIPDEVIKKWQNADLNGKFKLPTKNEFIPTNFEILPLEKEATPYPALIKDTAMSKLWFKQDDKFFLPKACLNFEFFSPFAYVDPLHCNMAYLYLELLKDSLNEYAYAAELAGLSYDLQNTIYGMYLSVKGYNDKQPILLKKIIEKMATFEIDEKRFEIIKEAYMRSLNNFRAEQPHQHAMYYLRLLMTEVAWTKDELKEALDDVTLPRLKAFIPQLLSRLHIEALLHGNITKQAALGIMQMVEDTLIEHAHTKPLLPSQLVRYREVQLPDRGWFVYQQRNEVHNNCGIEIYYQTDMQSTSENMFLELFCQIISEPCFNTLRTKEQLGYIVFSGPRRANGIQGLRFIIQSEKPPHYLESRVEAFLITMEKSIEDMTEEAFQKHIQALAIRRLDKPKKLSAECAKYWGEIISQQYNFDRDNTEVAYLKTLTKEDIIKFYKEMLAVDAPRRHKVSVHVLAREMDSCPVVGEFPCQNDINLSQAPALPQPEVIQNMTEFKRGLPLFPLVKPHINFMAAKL
Experiment: activators of endogenous IDE in HEK cells, dose response, cell-based, fluorescence polarization (AID 588439)
Assay type: functional

## Cc1cc(N)c2cc(NC(=O)/C=C/c3ccccc3Cl)ccc2n1
  EC50: > 54.7 µM (inactive)
